This passage reports IC50 and GI50 results from patent US20230159556A1, “NOVEL PROTEIN KINASE INHIBITORS” (TENOVA PHARMACEUTICALS INC., priority 2020, published 2023).

One experiment addresses T1, EGFR_L858R/T790M/C797S (Homo sapiens, UniProt P00533, C797S/L858R/T790M).
T1 construct: Reaction Biology Corporation (contract assay provider)
The experiment can be described thus: In vitro biochemical kinase assay (33P-ATP filter-binding, Reaction Biology). Here is the method:
The biochemical kinase assay was performed at Reaction Biology Corporation (www.reactionbiology.com, Malvern, Pa.) following procedures described in the reference (Anastassiadis, T, et al, Nature Biotechnology, 2011, 29, 1039). Base Reaction buffer includes 20 mM Hepes (pH 7.5), 10 mM MgCl2, 1 mM EGTA, 0.02% Brij35, 0.02 mg/ml BSA, 0.1 mM Na3VO4, 2 mM DTT and 1% DMSO. Required cofactors are added individually to each kinase reaction. Testing compounds were dissolved in 100% DMSO to specific concentration. The serial dilution was conducted by Integra Viaflo Assist in DMSO. Compounds in 100% DMSO are into the kinase reaction mixture by Acoustic technology (Echo550; nanoliter range), incubate for 20 min at room temperature, followed by ^33P-ATP and incubation for 2 hours at room temperature. Radioactivity was then detected by filter-binding method. Kinase activity data were expressed as the percent remaining kinase activity in test samples compared to vehicle (dimethyl sulfoxide) reactions. IC50 values and curve fits were obtained using Prism (GraphPad Software).

The target in experiment [1] is Ba/F3_EGFR_del19/T790M/C797S cell (Homo sapiens, UniProt P00533, T790M/C797S, cells depend on it, form not given). Description: BaF3 cell proliferation assay (CelltiterGlo, 72 hr). Format: cell-based. The following applies: 72 hr incubation; read-out: IC50 (nM, Ba/F3_EGFR_del19/T790M/C797S cell proliferation). Here is the method:
(§1) The BaF3 cell proliferation assay was performed at Pharmaron (www.pharmaron.com, Beijing, China). The Ba/F3_WT and Ba/F3_Del19/T790M/C797S cell lines were maintained in 1640 medium containing 10% FBS, 1*PS and 1*Glutamax. Only cells with viability greater than 90% are used for assays. Dispense 30 μl of cell suspension at 700/well into 384 well microplate, add 30 nl compound solution into 384 cell plate by Echo, cells were incubated for 72 hr in 37° C./5% CO2 incubator, add 30 μl reagent CelltiterGlo assay kit (CTG, Promega) per well and shake plates, incubate the plate (avoiding light) at 37° C./5% CO2 for 30 min. and read the luminescence by Envision. The luminescence values were converted to % Inhibition. Calculate IC50 by fitting % inhibition values and log of compound concentrations to nonlinear regression (dose response−variable slope) with Graphpad 5.0.
(§2) Y=Bottom+(Top−Bottom)/(1+10^((Log IC50−X)*HillSlope))
(§3) X: log of inhibitor concentration; Y: % Inhibition.
For orientation: ATP-based viability assays read luminescence as a measure of living cells.

The next experiment concerns Ba/F3_WT cell. The description is as above. Format: cell-based. The settings on record: Mus musculus, 72 hr incubation. Here is the method: as §1, §2, §3

Chain of Ba/F3_EGFR_del19/T790M/C797S cell (P00533 with tags, fused parts or gaps DEL746-750/T790M/C797S, form open): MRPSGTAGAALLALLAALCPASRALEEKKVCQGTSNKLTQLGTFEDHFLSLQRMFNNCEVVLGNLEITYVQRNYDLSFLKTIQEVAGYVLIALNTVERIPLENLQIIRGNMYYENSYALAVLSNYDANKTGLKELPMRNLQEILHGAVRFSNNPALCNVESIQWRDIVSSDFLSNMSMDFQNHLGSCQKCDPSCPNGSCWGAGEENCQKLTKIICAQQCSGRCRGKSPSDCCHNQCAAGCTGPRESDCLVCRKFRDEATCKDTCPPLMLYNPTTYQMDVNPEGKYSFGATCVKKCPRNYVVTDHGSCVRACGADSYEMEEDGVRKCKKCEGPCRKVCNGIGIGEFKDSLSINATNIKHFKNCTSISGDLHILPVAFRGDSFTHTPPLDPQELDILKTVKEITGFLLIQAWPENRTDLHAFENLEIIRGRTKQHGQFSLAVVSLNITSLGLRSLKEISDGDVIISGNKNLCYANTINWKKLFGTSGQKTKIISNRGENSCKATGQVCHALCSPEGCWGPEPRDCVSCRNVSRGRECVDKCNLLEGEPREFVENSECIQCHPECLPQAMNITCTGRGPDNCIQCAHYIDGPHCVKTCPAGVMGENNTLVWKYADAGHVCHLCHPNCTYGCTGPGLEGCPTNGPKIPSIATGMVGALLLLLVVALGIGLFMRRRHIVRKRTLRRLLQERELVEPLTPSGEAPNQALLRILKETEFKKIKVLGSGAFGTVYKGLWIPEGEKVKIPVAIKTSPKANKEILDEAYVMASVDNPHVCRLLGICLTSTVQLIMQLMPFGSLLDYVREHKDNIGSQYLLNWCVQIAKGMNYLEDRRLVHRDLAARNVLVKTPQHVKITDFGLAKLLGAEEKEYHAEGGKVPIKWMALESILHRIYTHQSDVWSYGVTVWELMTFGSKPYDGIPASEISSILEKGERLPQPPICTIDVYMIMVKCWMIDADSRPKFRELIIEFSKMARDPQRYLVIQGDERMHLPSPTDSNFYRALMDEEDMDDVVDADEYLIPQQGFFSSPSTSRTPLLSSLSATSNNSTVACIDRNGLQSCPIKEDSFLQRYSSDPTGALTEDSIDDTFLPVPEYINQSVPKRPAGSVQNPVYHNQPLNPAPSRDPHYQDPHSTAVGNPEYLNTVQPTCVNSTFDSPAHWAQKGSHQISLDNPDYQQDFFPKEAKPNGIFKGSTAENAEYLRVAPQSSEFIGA
T1 sequence (P00533 25-1210 T790M/C797S/L858R): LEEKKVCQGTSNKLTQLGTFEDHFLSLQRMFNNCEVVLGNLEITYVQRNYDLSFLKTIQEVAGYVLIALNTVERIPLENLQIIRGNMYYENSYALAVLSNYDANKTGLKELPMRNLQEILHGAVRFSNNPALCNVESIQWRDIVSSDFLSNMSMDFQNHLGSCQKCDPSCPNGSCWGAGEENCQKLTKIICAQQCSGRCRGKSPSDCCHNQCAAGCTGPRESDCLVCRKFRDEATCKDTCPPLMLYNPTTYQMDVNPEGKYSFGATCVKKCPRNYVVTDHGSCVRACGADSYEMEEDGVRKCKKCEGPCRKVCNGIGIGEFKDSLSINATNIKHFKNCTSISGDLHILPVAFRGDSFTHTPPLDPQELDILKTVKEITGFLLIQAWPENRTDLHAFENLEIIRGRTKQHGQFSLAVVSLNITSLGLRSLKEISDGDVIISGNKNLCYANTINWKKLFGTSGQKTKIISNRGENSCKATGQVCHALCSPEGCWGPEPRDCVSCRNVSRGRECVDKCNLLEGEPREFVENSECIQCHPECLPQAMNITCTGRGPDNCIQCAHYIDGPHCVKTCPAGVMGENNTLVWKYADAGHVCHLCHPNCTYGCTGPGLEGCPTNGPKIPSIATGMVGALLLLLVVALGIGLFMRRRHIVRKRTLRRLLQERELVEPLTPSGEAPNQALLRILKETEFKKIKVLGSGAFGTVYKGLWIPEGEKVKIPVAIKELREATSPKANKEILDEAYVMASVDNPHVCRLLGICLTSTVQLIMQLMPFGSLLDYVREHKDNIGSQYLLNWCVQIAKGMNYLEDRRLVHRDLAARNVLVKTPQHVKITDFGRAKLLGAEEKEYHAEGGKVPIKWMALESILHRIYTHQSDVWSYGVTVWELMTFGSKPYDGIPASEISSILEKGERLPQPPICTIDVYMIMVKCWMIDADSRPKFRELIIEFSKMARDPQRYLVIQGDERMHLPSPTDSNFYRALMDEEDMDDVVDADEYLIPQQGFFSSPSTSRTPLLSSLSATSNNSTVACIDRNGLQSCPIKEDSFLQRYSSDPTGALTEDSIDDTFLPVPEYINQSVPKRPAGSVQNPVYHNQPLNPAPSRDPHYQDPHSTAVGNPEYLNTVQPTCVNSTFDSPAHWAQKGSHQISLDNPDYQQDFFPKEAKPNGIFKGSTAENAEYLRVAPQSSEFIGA

As for `CCS(=O)(=O)N(C)c1cc2ccc1Nc1nc(ncc1Cl)Nc1cc(c(N3CCN(C)CC3)cc1OC)CCCCCO2` [Compound A8, N-(3^5-chloro-1^6-methoxy-1^4-(4-methylpiperazin-1-yl)-6-oxa-2,4-diaza-3(2,4)-pyrimidina-1(1,3),5(1,4)-dibenzenacycloundecaphane-5^2-yl)-N-methylethanesulfonamide], the IC50 – broadly, the concentration that gives 50% inhibition – at EGFR_L858R/T790M/C797S came out at 2.7 nM; with Ba/F3_WT cell, 3430 nM. In addition, in experiment [1], the GI50 was 538 nM.
As for `COc1cc(N2CCC(N3CCN(C)CC3)CC2)c2cc1Nc1ncc(Br)c(n1)Nc1ccc(cc1P(C)(C)=O)OCCCCCC2` [Compound A34, (3^5-bromo-1^6-methoxy-1^4-(4-(4-methylpiperazin-1-yl)piperidin-1-yl)-6-oxa-2,4-diaza-3(2,4)-pyrimidina-1(1,3),5(1,4)-dibenzenacyclododecaphane-5^2-yl)dimethylphosphine oxide], the IC50 was found to be 2 nM at EGFR_L858R/T790M/C797S and 3820 nM with Ba/F3_WT cell. Further, the GI50 in experiment [1] was found to be 142 nM.
For `COc1cc(N2CCC(N(C)C)C2)c2cc1Nc1ncc(Cl)c(n1)Nc1ccc(cc1N(C)S(C)(=O)=O)OCCCCC2` (stereo not drawn) [Compound A27, N-(3^5-chloro-1^4-(3-(dimethylamino)pyrrolidin-1-yl)-1^6-methoxy-6-oxa-2,4-diaza-3(2,4)-pyrimidina-1(1,3),5(1,4)-dibenzenacycloundecaphane-5^2-yl)-N-methylmethanesulfonamide] the same measures were 2.3 nM, 3400 nM and 330 nM.
For `COc1cc(N2CCN(C)CC2)c2cc1Nc1ncc(Cl)c(n1)Nc1ccc(cc1N(C)S(C)(=O)=O)OCCCC2` [Compound A4, N-(3^5-chloro-1^6-methoxy-1^4-(4-methylpiperazin-1-yl)-6-oxa-2,4-diaza-3(2,4)-pyrimidina-1(1,3),5(1,4)-dibenzenacyclodecaphane-5^2-yl)-N-methylmethanesulfonamide] the same measures were 46.5 nM, 3320 nM and 252 nM.
For `COc1cc(N2CCN(C)CC2)c2cc1Nc1ncc(Br)c(n1)Nc1ccc(cc1P(C)(C)=O)OCCCC2` [Compound A35, (3^5-bromo-1^6-methoxy-1^4-(4-methylpiperazin-1-yl)-6-oxa-2,4-diaza-3(2,4)-pyrimidina-1(1,3),5(1,4)-dibenzenacyclodecaphane-5^2-yl)dimethylphosphine oxide] the same measures were 289 nM, 2240 nM and 1050 nM.
Regarding `COc1cc(N2CCN(C(C)=O)CC2)c2cc1Nc1ncc(Cl)c(n1)Nc1ccc(cc1N(C)S(C)(=O)=O)OCCCCC2` [Compound A31, N-(1^4-(4-acetylpiperazin-1-yl)-3^5-chloro-1^6-methoxy-6-oxa-2,4-diaza-3(2,4)-pyrimidina-1(1,3),5(1,4)-dibenzenacycloundecaphane-5^2-yl)-N-methylmethanesulfonamide], the 50% inhibitory concentration (IC50) on EGFR_L858R/T790M/C797S is 12.7 nM; with Ba/F3_WT cell it was above 10000 nM. Also, in experiment [1], the GI50 was found to be 154 nM.
For `CCN(c1cc2ccc1Nc1nc(ncc1Cl)Nc1cc(c(N3CCN(C)CC3)cc1OC)CCCCCCO2)S(C)(=O)=O` [Compound A23, N-(3^5-chloro-1^6-methoxy-1^4-(4-methylpiperazin-1-yl)-6-oxa-2,4-diaza-3(2,4)-pyrimidina-1(1,3),5(1,4)-dibenzenacyclododecaphane-5^2-yl)-N-ethylmethanesulfonamide] the same measures were 2.6 nM, 2660 nM and 157 nM.
The like results for `COc1cc(N2CCN(C)CC2)c2cc1Nc1ncc(Cl)c(n1)Nc1ccc(cc1P(C)(C)=O)OCCCCC2` [Compound A18, (3^5-chloro-1^6-methoxy-1^4-(4-methylpiperazin-1-yl)-6-oxa-2,4-diaza-3(2,4)-pyrimidina-1(1,3),5(1,4)-dibenzenacycloundecaphane-5^2-yl)dimethylphosphine oxide] were, in that order, 145 nM, above 10000 nM and 520 nM.
The like results for `COc1cc(N2C[C@H]3CN(C)C[C@H]3C2)c2cc1Nc1ncc(Cl)c(n1)Nc1ccc(cc1N(C)S(C)(=O)=O)OCCCCC2` [Compound A28, N-(3^5-chloro-1^6-methoxy-1^4-((cis-3,6)-5-methylhexahydropyrrolo[3,4-c]pyrrol-2(1H)-yl)-6-oxa-2,4-diaza-3(2,4)-pyrimidina-1(1,3),5(1,4)-dibenzenacycloundecaphane-5^2-yl)-N-methylmethanesulfonamide] were, in that order, 1.4 nM, 2970 nM and 194 nM.
Take `COc1cc(N2CCN(C3CCN(C)CC3)CC2)c2cc1Nc1ncc(Cl)c(n1)Nc1ccc(cc1N(C)S(C)(=O)=O)OCCCCC2` [Compound A20, N-(3^5-chloro-1^6-methoxy-1^4-(4-(1-methylpiperidin-4-yl)piperazin-1-yl)-6-oxa-2,4-diaza-3(2,4)-pyrimidina-1(1,3),5(1,4)-dibenzenacycloundecaphane-5^2-yl)-N-methylmethanesulfonamide]: the concentration for half-maximal inhibition (IC50) on EGFR_L858R/T790M/C797S was determined as 2.6 nM; in the experiment on Ba/F3_WT cell, 1450 nM. Moreover, the GI50 in experiment [1] was 89 nM.
The like results for `COc1cc(N2CCN(C)CC2)c2cc1Nc1ncc(Cl)c(n1)Nc1ccc(cc1N(C)S(C)(=O)=O)OCCCCCC2` [Compound A14, N-(3^5-chloro-1^6-methoxy-1^4-(4-methylpiperazin-1-yl)-6-oxa-2,4-diaza-3(2,4)-pyrimidina-1(1,3),5(1,4)-dibenzenacyclododecaphane-5^2-yl)-N-methylmethanesulfonamide] were, in that order, 16.7 nM, 2960 nM and 897 nM.
For `CCN(c1cc2ccc1Nc1nc(ncc1Cl)Nc1cc(c(N3CCN(C)CC3)cc1OC)CCCCCO2)S(C)(=O)=O` [Compound A10, N-(3^5-chloro-1^6-methoxy-1^4-(4-methylpiperazin-1-yl)-6-oxa-2,4-diaza-3(2,4)-pyrimidina-1(1,3),5(1,4)-dibenzenacycloundecaphane-5^2-yl)-N-ethylmethanesulfonamide] the same measures were 0.5 nM, 1840 nM and 125 nM.
The like results for `COc1cc(N2CCC(N3CCOCC3)CC2)c2cc1Nc1ncc(Cl)c(n1)Nc1ccc(cc1N(C)S(C)(=O)=O)OCCCCC2` [Compound A32, N-(3^5-chloro-1^6-methoxy-1^4-(4-morpholinopiperidin-1-yl)-6-oxa-2,4-diaza-3(2,4)-pyrimidina-1(1,3),5(1,4)-dibenzenacycloundecaphane-5^2-yl)-N-methylmethanesulfonamide] were, in that order, 0.6 nM, 4840 nM and 106 nM.
For the compound `COc1cc(N2CCN(C)CC2)c2cc1Nc1ncc(Cl)c(n1)Nc1ccc(cc1N(C)S(C)(=O)=O)OCCCCC2` [Compound A3, N-(3^5-chloro-1^6-methoxy-1^4-(4-methylpiperazin-1-yl)-6-oxa-2,4-diaza-3(2,4)-pyrimidina-1(1,3),5(1,4)-dibenzenacycloundecaphane-5^2-yl)-N-methylmethanesulfonamide], the results for the IC50 at EGFR_L858R/T790M/C797S and in the experiment with Ba/F3_WT cell were 9.86 nM and 1180 nM, respectively. For the same compound, the GI50 in experiment [1] was found to be 135 nM.
`COc1cc(N2CCC(N3CCN(C)CC3)CC2)c2cc1Nc1ncc(Cl)c(n1)Nc1ccc(cc1S(=O)(=O)C(C)C)OCCCCC2` [Compound A26, 3^5-chloro-5^2-(isopropylsulfonyl)-16-methoxy-1^4-(4-(4-methylpiperazin-1-yl)piperidin-1-yl)-6-oxa-2,4-diaza-3(2,4)-pyrimidina-1(1,3),5(1,4)-dibenzenacycloundecaphane]: the IC50 came out at 250 nM on EGFR_L858R/T790M/C797S and 1790 nM with Ba/F3_WT cell. Further, the GI50 in experiment [1] came out at 1110 nM.
The like results for `COc1cc(N2CCC(N3CCN(C)CC3)CC2)c2cc1Nc1ncc(Cl)c(n1)Nc1ccc(cc1N(C)S(C)(=O)=O)OCCCCCC2` [Compound A15, N-(3^5-chloro-1^6-methoxy-1^4-(4-(4-methylpiperazin-1-yl)piperidin-1-yl)-6-oxa-2,4-diaza-3(2,4)-pyrimidina-1(1,3),5(1,4)-dibenzenacyclododecaphane-5^2-yl)-N-methylmethanesulfonamide] were, in that order, 0.5 nM, 2660 nM and 195 nM.
